Data on 13 compounds can be found in patent publication US20020028938A1, “Prostaglandin endoperoxide H synthase biosynthesis inhibitors” (priority 1997, published 2002).

Data set [1] concerns the target T1, Human Whole Platelet Cyclooxygenase-1 (Homo sapiens, UniProt P23219).
T1 construct: from tissue; host or cells: human blood: isolated platelets (A4) or heparinised whole blood (A9)
Nature of the data set: Human Whole Platelet Cyclooxygenase-1 assay (HWPX). It counts as cell-based. The following applies: for IC50: read-out: HWPX IC50 (parenthetical value). How it is done: Blood from normal healthy volunteers is collected into tubes containing ACD (acid citrate dextrose) as the anticoagulant. This blood is centrifuged at 175×g to prepare platelet rich plasma. The platelet rich plasma is then centrifuged at 100×g to pellet the white blood cells, leaving the platelets in the supernatant. The supernatant is layered on a cushion of 0.7 mL of 10% bovine serum albumin in Tyrodes solution (Gibco; Grand Island, N.Y.) and then centrifuged at 1000×g. The resulting supernatant from this centrifuigation is then removed and 11 mL of Tyrodes solution is added to the remaining pellet of platelets. The platelets are then aliquoted at 120 μl into a 96 well plate. Experimental compounds are added and allowed to pre-incubate for 10 minutes. At the end of this pre-incubation period, the calcium ionophore A23187 is added to a final concentration of 8.8 μM and the incubation is continued for ten minutes. The reaction is stopped by adding cold 6 mM EDTA, the incubation mixture is centrifuged at 220×g, and the supernatants are then analyzed for thromboxane using a commercial kit from Cayman Chemical (Ann Arbor, Mich.

In data set [2] the target is T2, recombinant human Cox-2 (r-hu Cox-2) (Homo sapiens, UniProt P35354).
T2 construct: made in house; host or cells: baculovirus/Sf9 insect cells (microsomes)
T2 sequence (P35354 18-604): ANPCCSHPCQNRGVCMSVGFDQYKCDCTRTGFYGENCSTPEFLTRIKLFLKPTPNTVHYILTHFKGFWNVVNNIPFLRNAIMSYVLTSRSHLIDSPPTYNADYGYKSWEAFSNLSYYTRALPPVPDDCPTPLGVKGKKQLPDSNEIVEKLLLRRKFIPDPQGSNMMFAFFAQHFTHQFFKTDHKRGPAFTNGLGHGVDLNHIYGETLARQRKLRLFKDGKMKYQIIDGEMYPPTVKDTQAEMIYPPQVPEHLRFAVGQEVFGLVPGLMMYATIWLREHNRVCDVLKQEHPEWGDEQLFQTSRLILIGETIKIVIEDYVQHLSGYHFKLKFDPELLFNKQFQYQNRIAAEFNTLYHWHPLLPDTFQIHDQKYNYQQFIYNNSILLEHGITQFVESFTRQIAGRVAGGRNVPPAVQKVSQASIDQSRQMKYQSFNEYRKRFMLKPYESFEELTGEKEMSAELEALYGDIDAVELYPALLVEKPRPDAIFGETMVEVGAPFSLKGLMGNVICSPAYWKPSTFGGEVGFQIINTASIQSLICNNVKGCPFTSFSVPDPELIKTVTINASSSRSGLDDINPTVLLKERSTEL
Nature of the data set: Recombinant human PGHS-2 enzyme assay (RHUCX2). It counts as biochemical. The conditions noted are these: for inhibition at 0.1 µM / inhibition at 1 µM / inhibition at 10 µM / inhibition at 0.01 µM: read-out: RHUCX2 % Inh. at Dose; for IC50: read-out: RHUCX2 IC50 (parenthetical value). The gist of the method: (§1)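 PGE2 production measured by enzyme immunoassay with standards in the same milieu. Inhibition was computed versus control group mean and IC50 estimated by linear regression.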

For data set [3], the target named is T3, human amnionic whole cell cyclooxygenase-2 (WISH cells) (Homo sapiens, UniProt P35354).
T3 construct: endogenous in cells; host or cells: human amnionic WISH cells, induced with IL-1beta
T3 sequence (P35354 18-604): T2 sequence (P35354 18-604)
The data set can be described thus: IL-1β induced PGE2 production in WISH cells. The conditions noted are these: for IC50: read-out: Wish IC50 (parenthetical value); for inhibition at 0.01 µM / inhibition at 0.1 µM: read-out: Wish % Inhib. at Dose. Type of data set: cell-based. The essentials: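 PGE2 was quantified by enzyme immunoassay (optical density read) against standards made up in the matching medium. WISH cells at 80% confluence, washed and placed in serum-free Neuman-Tytell medium, received 5 ng/ml IL-1β plus test compound or DMSO vehicle (0.01% v/v).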

The target of data set [4] is T4, recombinant human Cox-1 (r-hu Cox1) (Homo sapiens, UniProt P23219).
T4 construct: made in house; host or cells: baculovirus/Sf9 insect cells (microsomes)
T4 sequence (P23219 24-599): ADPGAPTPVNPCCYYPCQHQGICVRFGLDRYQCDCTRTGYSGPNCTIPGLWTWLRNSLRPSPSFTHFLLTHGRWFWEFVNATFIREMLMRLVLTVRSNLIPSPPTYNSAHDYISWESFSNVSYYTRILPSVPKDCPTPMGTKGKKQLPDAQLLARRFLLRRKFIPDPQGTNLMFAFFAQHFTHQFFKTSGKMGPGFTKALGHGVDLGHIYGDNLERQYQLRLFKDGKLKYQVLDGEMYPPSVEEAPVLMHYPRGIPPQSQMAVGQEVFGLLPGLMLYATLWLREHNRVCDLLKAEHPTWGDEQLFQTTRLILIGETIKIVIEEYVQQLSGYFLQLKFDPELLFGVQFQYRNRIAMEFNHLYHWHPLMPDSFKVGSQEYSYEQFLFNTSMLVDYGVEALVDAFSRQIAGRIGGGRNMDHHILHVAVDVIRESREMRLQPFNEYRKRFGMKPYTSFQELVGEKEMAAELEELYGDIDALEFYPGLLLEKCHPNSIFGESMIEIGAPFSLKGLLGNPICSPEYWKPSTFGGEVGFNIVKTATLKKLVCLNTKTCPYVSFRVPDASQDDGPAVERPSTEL
The data set can be described thus: Recombinant human PGHS-1 enzyme assay (RHUCX1). The conditions noted are these: for inhibition at 1 µM / inhibition at 10 µM / inhibition at 100 µM: read-out: RHUCX1 % Inh. at Dose. It counts as biochemical. The essentials: as §1

T1 sequence (P23219 24-599): as above

For `Cc1cc(-c2c(-c3ccc(S(C)(=O)=O)cc3)cnn(-c3ccc(F)c(Cl)c3)c2=O)ccc1F` [Example 247, 2-(3-Chloro-4-fluorophenyl)-4-(4-fluoro-3-mehylphenyl)-5-[4-(methylsulfonyl)phenyl]-3(2H)-pyridazinone], the melting point was in the range of 207 to 208 °C. The IC50 in data set [1] turned out to be 7760 nM. Further, in data set [2] (0.1 μM), the inhibition at 0.1 µM was determined as 51%. In addition, the inhibition at 1 µM in data set [2] (1 μM) came out at 71%. In data set [2] (10 μM), the inhibition at 10 µM was determined as 99%. For the same compound, the IC50 in data set [3] amounted to 20 nM. Besides, the inhibition at 1 µM in data set [4] (1 μM) was found to be 55%. Further, the inhibition at 10 µM in data set [4] (10 μM) was 72%.

For the compound `CC(C)(C)COc1c(-c2ccc(S(C)(=O)=O)cc2)cnn(-c2cccc(Cl)c2)c1=O` [Example 338, 2-(3-Chlorophenyl)-4-(2,2-dimethylpropoxy)-5-[4-(methylsulfonyl)phenyl]-3(2H)-pyridazinone], the melting point is 151 to 153 °C. Moreover, in data set [1], the IC50 is 14900 nM. For the same compound, the inhibition at 0.1 µM in data set [2] (0.1 μM) was found to be 83%. Besides, the inhibition at 1 µM in data set [2] (1 μM) amounted to 100%. In data set [3], the IC50 turned out to be 4 nM. Moreover, the inhibition at 100 µM in data set [4] (100 μM) stood at 0%.

The compound `CS(=O)(=O)c1ccc(-c2cnn(Cc3ccccc3)c(=O)c2-c2ccc(Cl)cc2)cc1` [Example 53, 2-Benzyl-4-(4-chlorophenyl)-5-[4-(methylsulfonyl)phenyl]-3(2H)-pyridazinone] had a melting point of 157 to 159 °C. Moreover, the inhibition at 1 µM in data set [1] (1 μM, read-out: HWPX % Inhib. at Dose) came to 8%. Further, in data set [1] (10 μM, read-out: HWPX % Inhib. at Dose), the inhibition at 10 µM was 78%. Also, in data set [2] (0.1 μM), the inhibition at 0.1 µM amounted to 77%. Besides, the inhibition at 1 µM in data set [2] (1 μM) is 99%. In data set [3], the inhibition at 0.01 µM is 44% and the inhibition at 0.1 µM was determined as 90%. In data set [4] (100 μM), the inhibition at 100 µM came out at 10%.

On to `CS(=O)(=O)c1ccc(-c2cnn(-c3ccc(Cl)s3)c(=O)c2-c2ccc(Cl)cc2)cc1` [Example 100, 2-(5-Chloro-2-thienyl)-4-(4-chlorophenyl)-5-[4-(methylsulfonyl)phenyl]-3(2H)-pyridazinone], for which the melting point was 249 to 251 °C. In data set [1], the IC50 was 130 nM. The inhibition at 0.1 µM in data set [2] (0.1 μM) amounted to 61%. For the same compound, in data set [2] (10 μM), the inhibition at 10 µM turned out to be 100%. For the same compound, the half-maximal inhibitory concentration (IC50) in data set [3] came to 20 nM. For the same compound, the inhibition at 1 µM in data set [4] (1 μM) was 65%. Moreover, in data set [4] (10 μM), the inhibition at 10 µM came to 62%.

`CS(=O)(=O)c1ccc(-c2cnn(-c3ccc(F)cc3)c(=O)c2COc2ccc(F)cc2)cc1` [Example 194, 2-(4-Fluorophenyl)-4-(4-fluolophenoxymethyl)-5-[4-(methylsulfonyl)phenyl]-3(2H)-pyridazinone]: the 50% inhibitory concentration (IC50) in data set [1] turned out to be 28100 nM; in data set [3] it was 69 nM. Besides, the figures for the “RHUCX2 % Inh. at Dose (μM)” value in data set [2] (0.1 μM), in data set [2] (1 μM) and in data set [2] (10 μM) were 72 @ 0.1%, 73 @ 1% and 90 @ 10%, respectively. Besides, the “RHUCX1 % Inh. at Dose (μM)” value in data set [4] (100 μM) is reported as 35 @ 100%.

On to `CS(=O)(=O)c1ccc(-c2cnn(-c3cccc(Cl)c3)c(=O)c2-c2ccc(F)cc2)cc1` [Example 165], for which the melting point lay within 232 to 235 °C. Moreover, the IC50 in data set [1] came out at 1900 nM. In data set [2], the IC50 was 1080 nM. Further, the IC50 in data set [3] is 30 nM. The inhibition at 100 µM in data set [4] (100 μM) was 0%.

In turn, `CC(C)CCc1c(-c2ccc(S(N)(=O)=O)cc2)cnn(-c2ccc(F)c(F)c2)c1=O` [Example 404, 2-(3,4-Difluorophenyl)-4-(3-methylbutyl)-5-[4-(aminosulfonyl)phenyl]-3(2H)-pyridazinone] yielded a melting point of 171 to 173 °C. Also, the IC50 in data set [1] is 337 nM. For the same compound, in data set [2] (0.01 μM), the inhibition at 0.01 µM is 57%. For the same compound, in data set [2] (0.1 μM), the inhibition at 0.1 µM turned out to be 92%. Moreover, in data set [3], the inhibition at 0.01 µM came out at 58% and the inhibition at 0.1 µM was determined as 96%. For the same compound, in data set [4] (10 μM), the inhibition at 10 µM turned out to be 47%. In addition, the inhibition at 100 µM in data set [4] (100 μM) stood at 77%.

Turning to `C=C(F)C(F)(F)n1ncc(-c2ccc(S(N)(=O)=O)cc2)c(-c2ccc(F)cc2)c1=O` [Example 142, 2-(1,1,2-Trifluoro-2-propenyl)-4-(4-fluorophenyl)-5-[4-(aminosulfonyl)phenyl]-3(2H)-pyridazinone], the melting point is 230 to 232 °C. Besides, in data set [1], the IC50 amounted to 7530 nM. The inhibition at 0.01 µM in data set [2] (0.01 μM) worked out at 32%. For the same compound, in data set [2] (0.1 μM), the inhibition at 0.1 µM turned out to be 45%. Also, the inhibition at 1 µM in data set [2] (1 μM) is 96%. Moreover, the IC50 in data set [3] stood at 88 nM. Further, in data set [4] (1 μM), the inhibition at 1 µM was determined as 53%. In addition, the inhibition at 10 µM in data set [4] (10 μM) amounted to 80%.

Take `NS(=O)(=O)c1ccc(-c2cnn(Cc3cccc(F)c3)c(=O)c2-c2ccc(F)cc2)cc1` [Example 149, 2-(3-Fluorobenzyl)-4-(4-fluorophenyl)-5-[4-(aminosulfonyl)phenyl]-3(2H)-pyrdazinone]: the “HWPX % Inhib. at Dose (μM)” value in data set [1] (3 μM) was 34 @ 3%; in data set [1] (10 μM), 89 @ 10%. Also, the IC50 in data set [2] was 3 nM; in data set [3], 30 nM. Besides, the “RHUCX1 % Inh. at Dose (μM)” value in data set [4] (1 μM) is listed as 40 @ 1%; in data set [4] (10 μM), 45 @ 10%.

For the compound `NS(=O)(=O)c1ccc(-c2cnn(CC3=CCCCC3)c(=O)c2-c2ccc(F)cc2)cc1` [Example 145, 2-(1-Cyclohexenylmethyl)-4-(4-fluorphenyl)-5-[4-(aminosulfonyl)phenyl]-3(2H)-pyridazinone], the figures for the “HWPX % Inhib. at Dose (μM)” value in data set [1] (0.3 μM) and in data set [1] (1 μM) were 30 @ .3% and 72 @ 1%, respectively. The “RHUCX2 % Inh. at Dose (μM)” value in data set [2] (0.01 μM) is 56 @ 0.01%; in data set [2] (0.1 μM) it was 86 @ 0.1%. Further, the IC50 in data set [3] amounted to 9 nM; in data set [4] (read-out: RHUCX1 IC50 (parenthetical value)) it was 238 nM.

On to “2-(5-Methylthien-2-ylmethyl)-4-(4-fluorophenyl)-5-[4-(methylsulfonyl)phenyl]-3(2H)-pyridazinone [Example 43]”, for which the “HWPX % Inhib. at Dose (μM)” value was 9 @ 1% in data set [1] (1 μM) and 86 @ 10% in data set [1] (10 μM). Also, the “RHUCX2 % Inh. at Dose (μM)” value in data set [2] (0.1 μM) is on record as 96 @ 0.1%; in data set [2] (1 μM), 100 @ 1%. In addition, in data set [3], the IC50 was found to be 8 nM. In addition, in data set [4] (100 μM), the “RHUCX1 % Inh. at Dose (μM)” value was 8 @ 100%.

With `CS(=O)(=O)c1ccc(-c2cnn(-c3ccc([N+](=O)[O-])s3)c(=O)c2-c2ccc(F)cc2)cc1` [Example 105, 2-(5-Nitro-2-thienyl)-4-(4-fluorophenyl)-5-[4-(methylsulfonl)phenyl]-3(2H)-pyridazinone], the “HWPX % Inhib. at Dose (μM)” value in data set [1] (1 μM) is on record as 62 @ 1%. Besides, the “RHUCX2 % Inh. at Dose (μM)” value is 52 @ 0.1% in data set [2] (0.1 μM) and 98 @ 1% in data set [2] (1 μM). The IC50 in data set [3] was found to be 18 nM. Besides, the “RHUCX1 % Inh. at Dose (μM)” value in data set [4] (1 μM) is given as 85 @ 1%.

Regarding `CS(=O)(=O)c1ccc(-c2cnn(-c3ccc(F)cc3)c(=O)c2Oc2ccc(F)cc2)cc1` [Example 108, 2-(4-Fluorophenyl)-4-(4-fluorophenoxy)-5-[4-(methylsulfonyl)phenyl]-3(2H)-pyridazinone], the 50% inhibitory concentration (IC50) in data set [1] stood at 8000 nM; in data set [2], 279 nM; in data set [3], 97 nM. For the same compound, the inhibition at 100 µM in data set [4] (100 μM) was determined as 0%.

As a reminder, the melting point is the temperature of the solid-liquid transition. The IC50 is the concentration needed to halve the response being measured.
